Data published in patent US4698327A, “Novel glycopeptide derivatives” (priority 1986, dated 1987).
In brackets after ≈: the same amount, converted by molar mass.

Assays:
[1] = tested on: Staphylococcus aureus NRRL B313; details: agar dilution
[2] = tested on: Haemophilus influenzae 76; assay: MIC, standard agar-dilution assay; assay type: cell-based
[3] = tested on: Staphylococcus aureus V41; assay: MIC, standard agar-dilution assay; assay type: cell-based
[4] = tested on: Streptococcus faecium ATCC 9790; assay: MIC, standard agar-dilution assay; assay type: cell-based
[5] = tested on: Staphylococcus aureus X400; assay: MIC, standard agar-dilution assay; assay type: cell-based
[6] = tested on: Staphylococcus epidermidis EPI1; assay type: cell-based; details: agar dilution
[7] = tested on: Klebsiella pneumoniae X68; assay: MIC, standard agar-dilution assay; assay type: cell-based
[8] = tested on: Staphylococcus epidermidis 222; assay: MIC, standard agar-dilution assay; assay type: cell-based
[9] = tested on: Haemophilus influenzae C.L.; assay: MIC, standard agar-dilution assay; assay type: cell-based
Staphylococcus aureus = Staphylococcus aureus infection in mice; two doses, administered subcutaneously
[10] = tested on: Staphylococcus aureus S13E; assay type: cell-based; details: agar dilution
Streptococcus pyogenes = Streptococcus pyogenes infection in mice; two doses, administered subcutaneously
[11] = tested on: Klebsiella pneumoniae X26; assay: MIC, standard agar-dilution assay; assay type: cell-based
[12] = tested on: Streptococcus sp. group D 2041; assay: MIC, standard agar-dilution assay; assay type: cell-based
[13] = tested on: Streptococcus pyogenes C203; assay: MIC, standard agar-dilution assay; assay type: cell-based
Streptococcus pneumoniae = Streptococcus pneumoniae infection in mice; two doses, administered subcutaneously
Escherichia coli TEM = assay: MIC, standard agar-dilution assay; assay type: cell-based
Escherichia coli EC14 = assay: MIC, standard agar-dilution assay; assay type: cell-based
Escherichia coli N10 = assay: MIC, standard agar-dilution assay; assay type: cell-based
[14] = tested on: Streptococcus pneumoniae Park 1; assay type: cell-based; details: agar dilution
[15] = tested on: Klebsiella pneumoniae KAE; assay: MIC, standard agar-dilution assay; assay type: cell-based

SMILES | MIC [1] [µg/mL] | MIC [2] [µg/mL] | MIC [3] [µg/mL] | MIC [4] [µg/mL] | MIC [5] [µg/mL] | MIC [6] [µg/mL] | MIC [7] [µg/mL] | MIC [8] [µg/mL] | MIC [9] [µg/mL] | ED50 (Staphylococcus aureus) [mg/kg/2] | MIC [10] [µg/mL] | ED50 (Streptococcus pyogenes) [mg/kg/2] | MIC [11] [µg/mL] | MIC [12] [µg/mL] | MIC [13] [µg/mL] | ED50 (Streptococcus pneumoniae) [mg/kg/2] | MIC (Escherichia coli TEM) [µg/mL] | MIC (Escherichia coli EC14) [µg/mL] | MIC (Escherichia coli N10) [µg/mL] | MIC [14] [µg/mL] | further results
CCCCCCCCc1ccc(CNC2(C)CC(OC3C(Oc4c5cc6cc4Oc4ccc(cc4Cl)C(O)C4NC(=O)C(NC(=O)C6NC(=O)C(CC(N)=O)NC(=O)C(NC(=O)C(CC(C)C)NC)C(O)c6ccc(c(Cl)c6)O5)c5ccc(O)c(c5)-c5c(O)cc(O)cc5C(C(=O)O)NC4=O)OC(CO)C(O)C3O)OC(C)C2O)cc1 (stereo not drawn) [Example 93, N^van --( -p-octylbenzyl)vancomycin] | 0.5 (≈ 0.303 µM) | > 128 | 1 (≈ 0.605 µM) | 0.25 (≈ 0.151 µM) | 1 (≈ 0.605 µM) | 2 (≈ 1.21 µM) | > 128 | 1 (≈ 0.605 µM) | > 128 | 0.19 | 0.5 (≈ 0.303 µM) | 0.62 | > 128 | 0.5 (≈ 0.303 µM) | 0.25 (≈ 0.151 µM) | 0.23 | > 128 | > 128 | > 128 | 0.25 (≈ 0.151 µM) | MIC [15]: > 128 µg/mL
CCCCCCCCOc1ccc(CNC2(C)CC(OC3C(Oc4c5cc6cc4Oc4ccc(cc4Cl)C(O)C4NC(=O)C(NC(=O)C6NC(=O)C(CC(N)=O)NC(=O)C(NC(=O)C(CC(C)C)NC)C(O)c6ccc(c(Cl)c6)O5)c5ccc(O)c(c5)-c5c(O)cc(O)cc5C(C(=O)O)NC4=O)OC(CO)C(O)C3O)OC(C)C2O)cc1 (stereo not drawn) [Example 94, N^van --( -p-octyloxybenzyl)vancomycin] | 0.25 (≈ 0.15 µM) | > 128 | 0.5 (≈ 0.3 µM) | 0.25 (≈ 0.15 µM) | 0.5 (≈ 0.3 µM) | 1 (≈ 0.6 µM) | > 128 | 0.5 (≈ 0.3 µM) | > 128 | > 0.12 | 0.5 (≈ 0.3 µM) | 0.66 | > 128 | 0.25 (≈ 0.15 µM) | 0.25 (≈ 0.15 µM) | 0.2 | > 128 | > 128 | > 128 | 0.25 (≈ 0.15 µM) | MIC [15]: > 128 µg/mL
CNC(CC(C)C)C(=O)NC1C(=O)NC(CC(N)=O)C(=O)NC2C(=O)NC3C(=O)NC(C(=O)NC(C(=O)O)c4cc(O)cc(O)c4-c4cc3ccc4O)C(O)c3ccc(c(Cl)c3)Oc3cc2cc(c3OC2OC(CO)C(O)C(O)C2OC2CC(C)(NCc3ccc(O)cc3)C(O)C(C)O2)Oc2ccc(cc2Cl)C1O (stereo not drawn) [Example 105, N^van --( -p-hydroxybenzyl)vancomycin] | 0.5 (≈ 0.321 µM) | 64 (≈ 41.1 µM) | 0.5 (≈ 0.321 µM) | 0.5 (≈ 0.321 µM) | 0.5 (≈ 0.321 µM) | 1 (≈ 0.643 µM) | > 128 | 0.5 (≈ 0.321 µM) | 64 (≈ 41.1 µM) | 0.98 | 0.5 (≈ 0.321 µM) | 1.18 | > 128 | 2 (≈ 1.29 µM) | 0.5 (≈ 0.321 µM) | 1.25 | > 128 | > 128 | > 128 | 0.06 (≈ 0.0386 µM) | MIC [15]: > 128 µg/mL
